Common to all, as to assay: drug sensitivity score (DSS), CellTiter-Glo (DSS (AUC-based score)); higher = stronger drug effect (viability inhibition or cytotoxicity); extreme values may be limits of the assay
Conditions in all cases: incubation time: 72 h

One test concerns CAL-148. The gist of the method:
(§1)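 Breast cancer cell lines, seeded as 20 µl suspension, were incubated 72 h with compound in 384-well plates at 5 concentrations in 10-fold steps over a 10,000-fold range set for each compound. Fluorescence from CellTox Green was read at 485/520 nm before CellTiter-Glo luminescence, which was read after 10 min at room temperature. Every plate was normalised to 0.1 % DMSO and a positive kill control, and the drug sensitivity score was taken from the area under the fitted dose-response curve.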

For the next test, the system named is CAL-51. Put shortly:
as §1

In a further test the test system is CAL-85-1. Put shortly: as §1
A further test concerns HCC1599. Put shortly:
as §1

For the next test, the system named is HCC1937. The gist of the method: as §1
The next test concerns HDQ-P1. Put shortly: as §1
The subject of another test is Hs578T. Put shortly: as §1
For the next test, the system named is MDA-MB-231. The gist of the method: as §1
The test system of another test is MDA-MB-468. The gist of the method: as §1
The test system of another test is MFM-223. The gist of the method: as §1

Regarding `CCN1CCN(c2ccc(Nc3cc(N(C)C(=O)Nc4c(Cl)c(OC)cc(OC)c4Cl)ncn3)cc2)CC1` [NVP-BGJ398], the drug sensitivity score in the test on CAL-148, with CAL-51, with CAL-85-1, in the test with HCC1599, with HCC1937 and with HDQ-P1 was 0 throughout. Besides, the drug sensitivity score with Hs578T came out at 0.39; in the test with MDA-MB-231 it was 0; with MDA-MB-468 it was 0; in the test with MFM-223, 7.35.

For the compound `S=c1[nH]cnc2nc[nH]c12` [Mercaptopurine], the drug sensitivity score came to 0 with CAL-148; 0 with CAL-51; 1.24 with CAL-85-1; 5.32 with HCC1599; 8.73 with HCC1937; 9.67 in the test on HDQ-P1. Further, the drug sensitivity score came to 6.04 in the test on Hs578T, 7.35 in the test on MDA-MB-231, 0 with MDA-MB-468 and 0 in the test with MFM-223.

For the compound `CN(C)C/C=C/C(=O)Nc1cc2c(Nc3ccc(F)c(Cl)c3)ncnc2cc1O[C@H]1CCOC1` [Afatinib], the drug sensitivity score stood at 3.9 with CAL-148; 0 with CAL-51; 6.39 in the test with CAL-85-1; 0 with HCC1599; 0 with HCC1937; 8.44 in the test on HDQ-P1. In addition, the drug sensitivity score in the test on Hs578T worked out at 0; with MDA-MB-231, 0; in the test with MDA-MB-468, 2.66; in the test with MFM-223, 0.

On to `CO[C@H]1C[C@@H]2CC[C@@H](C)[C@@](O)(O2)C(=O)C(=O)N2CCCC[C@H]2C(=O)O[C@H]([C@H](C)C[C@@H]2CC[C@@H](OC(=O)C(C)(CO)CO)[C@H](OC)C2)CC(=O)[C@H](C)/C=C(\C)[C@@H](O)[C@@H](OC)C(=O)[C@H](C)C[C@H](C)/C=C/C=C/C=C/1C` [Temsirolimus], for which the drug sensitivity score is 8.93 with CAL-148; 11.3 in the test with CAL-51; 9.28 in the test with CAL-85-1; 0 in the test on HCC1599; 6.15 with HCC1937; 4.08 in the test with HDQ-P1. Besides, the drug sensitivity score was 10.1 in the test on Hs578T, 0 with MDA-MB-231, 14.7 in the test on MDA-MB-468 and 7.59 in the test with MFM-223.

Turning to `C[C@]1(c2nc3c(C(N)=O)cccc3[nH]2)CCCN1` [Veliparib], the drug sensitivity score in the test with CAL-148 is 0; with CAL-51 it was 3.97; in the test with CAL-85-1 it was 0; in the test with HCC1599 it was 0; in the test on HCC1937 it was 0; in the test on HDQ-P1, 0. Also, the drug sensitivity score with Hs578T, in the test on MDA-MB-231, in the test on MDA-MB-468 and with MFM-223 was 0 in each case.

For the compound `CC[C@]1(O)C[C@@H]2CN(CCc3c([nH]c4ccccc34)[C@@](C(=O)OC)(c3cc4c(cc3OC)N(C)[C@H]3[C@@](O)(C(=O)OC)[C@H](OC(C)=O)[C@]5(CC)C=CCN6CC[C@]43[C@@H]65)C2)C1` [Vinblastine], the drug sensitivity score in the test with CAL-148 was found to be 13; with CAL-51, 18.4; in the test on CAL-85-1 it was 20.7; with HCC1599, 17.2; in the test with HCC1937 it was 9.45; in the test with HDQ-P1, 7.5. In addition, the drug sensitivity score in the test on Hs578T is 20.3; in the test on MDA-MB-231, 16.2; in the test with MDA-MB-468 it was 21.1; with MFM-223, 13.

Regarding `Nc1nc(Cl)nc2c1ncn2[C@H]1C[C@H](O)[C@@H](CO)O1` [Cladribine], the drug sensitivity score in the test with CAL-148, in the test with CAL-51, in the test with CAL-85-1, in the test with HCC1599, with HCC1937 and in the test with HDQ-P1 was 0 in each case. In addition, the drug sensitivity score in the test with Hs578T came out at 0; in the test on MDA-MB-231 it was 0; in the test with MDA-MB-468 it was 0.301; in the test with MFM-223 it was 0.

Regarding `Cc1c2oc3c(C)ccc(C(=O)N[C@@H]4C(=O)N[C@H](C(C)C)C(=O)N5CCC[C@H]5C(=O)N(C)CC(=O)N(C)[C@@H](C(C)C)C(=O)O[C@@H]4C)c3nc-2c(C(=O)N[C@@H]2C(=O)N[C@H](C(C)C)C(=O)N3CCC[C@H]3C(=O)N(C)CC(=O)N(C)[C@@H](C(C)C)C(=O)O[C@@H]2C)c(N)c1=O` [Dactinomycin], the drug sensitivity score was found to be 25.7 in the test on CAL-148; 26.4 with CAL-51; 22.8 in the test on CAL-85-1; 16.4 with HCC1599; 21.7 in the test on HCC1937; 24.4 with HDQ-P1. Also, the drug sensitivity score with Hs578T is 22.5; in the test on MDA-MB-231, 22.4; in the test with MDA-MB-468, 32.2; with MFM-223, 15.

Turning to `COc1cccc2c1C(=O)c1c(O)c3c(c(O)c1C2=O)C[C@@](O)(C(=O)CO)C[C@@H]3O[C@H]1C[C@H](N)[C@H](O)[C@H](C)O1` [Doxorubicin], the drug sensitivity score in the test with CAL-148 is 8.35; in the test with CAL-51, 12.4; with CAL-85-1, 2.97; in the test on HCC1599 it was 1.68; in the test on HCC1937 it was 0; with HDQ-P1 it was 2.13. Besides, the drug sensitivity score amounted to 2.18 in the test with Hs578T, 4.21 in the test on MDA-MB-231, 9.32 in the test with MDA-MB-468 and 0 in the test on MFM-223.

As to `Clc1ccc(C(c2ccccc2Cl)C(Cl)Cl)cc1` (stereo not given) [Mitotane], the drug sensitivity score with CAL-148, with CAL-51, in the test with CAL-85-1, in the test on HCC1599, in the test on HCC1937 and with HDQ-P1 was 0 each time. The drug sensitivity score in the test on Hs578T, in the test with MDA-MB-231, with MDA-MB-468 and with MFM-223 was 0 in each case.
